Each block holds one molecule with its values, some of them ahead of it.
How the values were obtained:
Format in all cases: in vivo
[1] = system: HT-29 tumor and MDA-MB-231 tumor; assay: CA-IX selectivity of [^111In]ITDA1 in cancer-bearing mouse (HT-29 vs MDA-MB-231); details: 24 hours from administration
Method: HT-29 cells (5×10^6 cells/mouse) and MDA-MB-231 cells (5×10^6 cells/mouse) were subcutaneously inoculated into the left shoulders of 5-week old male BALB/c nude mice, respectively. A saline solution (100 μL) in which [^111In]ITDA1 (37 kBq) had been dissolved was administered to each of the cancer-bearing mice (n=5) via the tail vein. The mice were slaughtered after the lapse of 24 hours from the administration, and the blood, transplanted tumor, and muscle were recovered from each of the mice. The weight of each organ was measured, and the amount of radioactivity in each organ was measured by using a gamma counter. The accumulation of radioactivity in each organ was expressed by % ID (injected dose)/g obtained by dividing the ratio of the amount of radioactivity of each organ to the administered amount of radioactivity by the organ weight.

[2] = system: MDA-MB-231 tumor; assay: Biodistribution of [^111In]ITDA2 in MDA-MB-231 tumor cancer-bearing mouse; details: MDA-MB-231 tumor mouse, 24 hours
Method: HT-29 cells (5×10^6 cells/mouse) and MDA-MB-231 cells (1×10^7 cells/mouse) were subcutaneously inoculated into the left shoulders of 5-week old male BALB/c nude mice, respectively, and the mice were used when the tumor diameter reached 6 to 10 mm. A saline solution (100 μL) in which [^111In]ITDA2 (40 kBq) had been dissolved was administered to each of the HT-29 tumor or MDA-MB-231 tumor cancer-bearing mice (n=5) via the tail vein. The HT-29 tumor cancer-bearing mice were slaughtered after the lapse of 1, 4, 8, and 24 hours from the administration, the MDA-MB-231 tumor cancer-bearing mouse was slaughtered after the lapse of 24 hours from the administration, and the blood, spleen, pancreas, stomach, intestines, kidney, liver, heart, lungs, brain, tumor, and muscle were recovered from each of the mice. The weight of each organ was measured, and the amount of radioactivity in each organ was measured by using a gamma counter. The accumulation of radioactivity in each organ except for stomach was expressed by % injected dose/g organ obtained by dividing the ratio of the amount of radioactivity of each organ to the administered amount of radioactivity by the organ weight. The stomach was expressed by % injected dose.

[3] = system: HT-29-transplanted tumor; assay: Biodistribution of [^111In]ITDA3 in HT-29 cancer-bearing mouse; details: for Accumulation of radioactivity: Blood / Accumulation of radioactivity: Brain / Accumulation of radioactivity: HT-29 tumor / Accumulation of radioactivity: Heart / Accumulation of radioactivity: Intestines / Accumulation of radioactivity: Kidney / Accumulation of radioactivity: Liver / Accumulation of radioactivity: Lungs / Accumulation of radioactivity: Muscle / Accumulation of radioactivity: Pancreas / Accumulation of radioactivity: Spleen / Accumulation of radioactivity: Stomach / Tumor/blood / Tumor/muscle: HT-29 mouse
Method: HT-29 cells and MDA-MB-231 cells (5×10^6 cells/mouse) were subcutaneously inoculated into the left shoulders of 5-week old male BALB/c nude mice, respectively. A saline solution (100 μL) in which[^111In]ITDA3 (40 kBq) had been dissolved was administered to each of the cancer-bearing mice (n=5) via the tail vein. The HT-29 cancer-bearing mice were slaughtered after the lapse of 1, 4, and 24 hours from the administration, the MDA-MB-231 cancer-bearing mouse was slaughtered after the lapse of 24 hours from the administration, and the blood, spleen, pancreas, stomach, intestines, kidney, liver, heart, lungs, brain, HT-29 or MDA-MB-231-transplanted tumor, and muscle were recovered from each of the mice. The weight of each organ was measured, and the amount of radioactivity in each organ was measured by using a gamma counter. The accumulation of radioactivity in each organ except for stomach was expressed by % ID (injected dose)/g obtained by dividing the ratio of the amount of radioactivity of each organ to the administered amount of radioactivity by the organ weight. The stomach was expressed by % ID (injected dose).

CA-IX selective tumor accumulation [1]: confirmed
Amount accumulated in the HT-29 tumor vs the MDA-MB-231 tumor ([1]; Welch's t-test, 1% significance level): significant difference was observed
SMILES: NS(=O)(=O)c1nn2cc(-c3ccc(NC(=O)CN4CCN(CC(=O)O)CCN(CC(=O)O)CCN(CC(=O)O)CC4)cc3)nc2s1.[111In+3] [[^111In]ITDA1, [^111In]indium(III)2,2′,2″-(10-(2-oxo-2-((4-(2-sulfamoylimidazo[2,1-b][1,3,4]thiadiazol-6-yl)phenyl)amino)ethyl)-1,4,7,10-tetraazacyclododecan-1,4,7-triyl) triacetic acid]
Transplanted tumor/blood ratio, HT-29 vs MDA-MB-231 [1]: significant difference was similarly observed
Transplanted tumor/muscle ratio, HT-29 vs MDA-MB-231 [1]: significant difference was similarly observed

Biokinetics: Blood [2]: 0.29 ± 0.04 % injected dose/g organ
Biokinetics: Brain [2]: 0.34 ± 0.07 % injected dose/g organ
Biokinetics: Heart [2]: 1.13 ± 0.19 % injected dose/g organ
Biokinetics: Intestines [2]: 9.15 ± 1.04 % injected dose/g organ
Biokinetics: Kidney [2]: 59.8 ± 4.04 % injected dose/g organ
Biokinetics: Liver [2]: 2.77 ± 0.45 % injected dose/g organ
Biokinetics: Lungs [2]: 1.70 ± 0.57 % injected dose/g organ
Biokinetics: Muscle [2]: 0.64 ± 0.06 % injected dose/g organ
Biokinetics: Pancreas [2]: 3.37 ± 0.28 % injected dose/g organ
Biokinetics: Spleen [2]: 0.27 ± 0.07 % injected dose/g organ
Biokinetics: Stomach [2]: 8.43 ± 1.08 % injected dose
Biokinetics: Tumor [2]: 1.56 ± 0.17 % injected dose/g organ
Tumor/blood [2]: 5.51 ± 0.78
Tumor/muscle [2]: 2.46 ± 0.39
SMILES: NS(=O)(=O)c1nn2cc(-c3ccc(NC(=O)CN4CCN(CC(=O)O)CCN(CC(=O)Nc5ccc(-c6cn7nc(S(N)(=O)=O)sc7n6)cc5)CCN(CC(=O)O)CC4)cc3)nc2s1.[111In+3] [[^111In]ITDA2, [^111In]indium(III)2,2′-(4,10-bis(2-oxo-2-((4-(2-sulfamoylimidazo[2,1-b][1,3,4]thiadiazol-6-yl)phenyl)amino)ethyl)-1,4,7,10-tetraazacyclododecan-1,7-diyl) diacetic acid]

Accumulation of radioactivity: Blood ([3]; 1 hour after administration): 0.09 ± 0.01 % ID/g
Accumulation of radioactivity: Brain ([3]; 1 hour after administration): 0.27 ± 0.05 % ID/g
Accumulation of radioactivity: HT-29 tumor ([3]; 1 hour after administration): 1.60 ± 0.16 % ID/g
Accumulation of radioactivity: Heart ([3]; 1 hour after administration): 6.91 ± 0.32 % ID/g
Accumulation of radioactivity: Intestines ([3]; 1 hour after administration): 8.33 ± 0.44 % ID/g
Accumulation of radioactivity: Kidney ([3]; 1 hour after administration): 95.81 ± 9.44 % ID/g
Accumulation of radioactivity: Liver ([3]; 1 hour after administration): 8.42 ± 1.42 % ID/g
Accumulation of radioactivity: Lungs ([3]; 1 hour after administration): 3.58 ± 0.86 % ID/g
Accumulation of radioactivity: Muscle ([3]; 1 hour after administration): 2.47 ± 0.45 % ID/g
Accumulation of radioactivity: Pancreas ([3]; 1 hour after administration): 14.89 ± 3.20 % ID/g
Accumulation of radioactivity: Spleen ([3]; 1 hour after administration): 0.13 ± 0.20 % ID/g
Accumulation of radioactivity: Stomach ([3]; 1 hour after administration): 1.80 ± 0.27 % ID
Tumor/blood ([3]; 1 hour after administration): 18.89 ± 2.68
Tumor/muscle ([3]; 1 hour after administration): 0.66 ± 0.09
Accumulation of radioactivity: Blood ([3]; 4 hours after administration): 0.06 ± 0.01 % ID/g
Accumulation of radioactivity: Brain ([3]; 4 hours after administration): 0.26 ± 0.04 % ID/g
Accumulation of radioactivity: HT-29 tumor ([3]; 4 hours after administration): 1.71 ± 0.28 % ID/g
Accumulation of radioactivity: Heart ([3]; 4 hours after administration): 2.87 ± 0.36 % ID/g
Accumulation of radioactivity: Intestines ([3]; 4 hours after administration): 7.2 ± 1.53 % ID/g
Accumulation of radioactivity: Kidney ([3]; 4 hours after administration): 80.09 ± 5.11 % ID/g
Accumulation of radioactivity: Liver ([3]; 4 hours after administration): 6.51 ± 1.50 % ID/g
Accumulation of radioactivity: Lungs ([3]; 4 hours after administration): 2.24 ± 0.44 % ID/g
Accumulation of radioactivity: Muscle ([3]; 4 hours after administration): 1.88 ± 0.13 % ID/g
Accumulation of radioactivity: Pancreas ([3]; 4 hours after administration): 6.2 ± 0.78 % ID/g
Accumulation of radioactivity: Spleen ([3]; 4 hours after administration): 0.04 ± 0.03 % ID/g
Accumulation of radioactivity: Stomach ([3]; 4 hours after administration): 0.83 ± 0.11 % ID
Tumor/blood ([3]; 4 hours after administration): 28.6 ± 3.24
Tumor/muscle ([3]; 4 hours after administration): 0.92 ± 0.15
Accumulation of radioactivity: Blood ([3]; 24 hours after administration): 0.06 ± 0.01 % ID/g
Accumulation of radioactivity: Brain ([3]; 24 hours after administration): 0.33 ± 0.07 % ID/g
Accumulation of radioactivity: HT-29 tumor ([3]; 24 hours after administration): 3.02 ± 0.37 % ID/g
Accumulation of radioactivity: Heart ([3]; 24 hours after administration): 2.00 ± 0.38 % ID/g
Accumulation of radioactivity: Intestines ([3]; 24 hours after administration): 11.11 ± 0.85 % ID/g
Accumulation of radioactivity: Kidney ([3]; 24 hours after administration): 70.19 ± 9.28 % ID/g
Accumulation of radioactivity: Liver ([3]; 24 hours after administration): 4.92 ± 1.01 % ID/g
Accumulation of radioactivity: Lungs ([3]; 24 hours after administration): 1.20 ± 0.15 % ID/g
Accumulation of radioactivity: Muscle ([3]; 24 hours after administration): 1.63 ± 0.79 % ID/g
Accumulation of radioactivity: Pancreas ([3]; 24 hours after administration): 3.85 ± 0.68 % ID/g
Accumulation of radioactivity: Spleen ([3]; 24 hours after administration): 0.08 ± 0.05 % ID/g
Accumulation of radioactivity: Stomach ([3]; 24 hours after administration): 0.48 ± 0.04 % ID
Tumor/blood ([3]; 24 hours after administration): 52.06 ± 6.11
Tumor/muscle ([3]; 24 hours after administration): 2.08 ± 0.67
Amount of tumor accumulation compared with [^111In]ITDA1 ([3]; from Table 5): lower than that of [^111In]ITDA1
Amounts of accumulation in normal tissues (in particular, pancreas, stomach, intestines, and lungs) ([3]; from Table 5): small
SMILES: NS(=O)(=O)c1nn2cc(-c3ccc(NC(=O)CCC(C(=O)O)N4CCN(CC(=O)[O-])CCN(CC(=O)[O-])CCN(CC(=O)[O-])CC4)cc3)nc2s1.[111In+3] (centres unmarked) [[^111In]ITDA3]

— patent publication US20210322582A1, “RADIOACTIVE IMIDAZOTHIADIAZOLE DERIVATIVE COMPOUND” (Nihon Medi-Physics Co., Ltd., priority 2018, published 2021)
